In brackets after ≈: the same amount, converted by molar mass.
System: aqueous kinetic solubility, pH 7.4 phosphate buffer, LC-UV/MS
Experiment: qHTS Assay to Find Inhibitors of T. brucei phosphofructokinase: Aqueous Kinetic Solubility
Conditions: stronger effect = higher value

solubility: 150 µM (≈ 63.9 µg/mL)
SMILES: O=C(Cc1ccc(Cl)c(Cl)c1)Nc1ccc(S(=O)(=O)Nc2ccon2)cc1

Source: PubChem BioAssay AID624130 (National Center for Advancing Translational Sciences (NCATS), 2012)
